Measurements taken from US9037228B2, “Method and system for detecting electrophysiological changes in pre-cancerous and cancerous tissue” (Epi-Sci, LLC, priority 2002, dated 2015).
Read-outs that look alike come from different tables or passages of the source.

Legend:
[1] = tested on: human prostatic epithelial cells; conditions: cells grown in presence of DHT
Description: FIG. 13 represent measurements of cell membrane potential (ψ) in human prostatic epithelial cells under different growth conditions. A Voltage-sensitive FRET (fluorescent energy transfer) probe was used for potentiometric ratio measurements. It has two fluorescent components: CC2-DMPE (Coumarin) and DISBAC2(3) (Oxonol). The oxonol distributes itself on opposite sides of the cell membrane in a Nernstian manner according to the ψ. The voltage sensitive distribution of oxonol is transduced through a ratiometric fluorescence signal via the coumarin which is bound to the outside surface of the cell membrane thereby amplifying the fluorescence. Measurements were made using a fluorescence microscope and a digital imaging system. The ratio measurements are calibrated using Gramicidin D to depolarize the cell membrane and then varying the external K^+-concentration. The calibrated cell membrane potential in mV is depicted on the y-axis.
The filled bars indicates the ψ of exponentially growing prostatic epithelial cells before they reach confluence, whereas the open bars depict the ψ of the cells once they reach confluence and cell growth slows.

[2] = tested on: apical K+ channels of human colonic mucosa; conditions: normal colon, 30 mM mucosal TEA after elevated serosal K+, 0.1 mM amiloride present
Description: The potassium permeability of the apical membrane of human colonic mucosa (P^Ka) was determined in surgical specimens of controls and grossly normal-appearing mucosa obtained 10-30 cm proximal to colorectal adenocarcinomas. The mucosa was mounted in Ussing chambers and the basolateral membrane resistance and voltage were nullified by elevating the K^+ in the serosal bathing solution. The apical sodium (Na^+) conductance was blocked with 0.1 mM amiloride. This protocol reduces the equivalent circuit model of the epithelium to an apical membrane conductance and electromotive force in parallel with the paracellular pathway as has been verified by microelectrode studies. […] The serosal bath was remained constant at 125 mM [K].

colonic mucosa = assay: TEP response of colonic mucosa to topically applied amiloride
Description: The measured TEP decreases in response to a topically applied amiloride (a sodium channel blocker) in normal colonic mucosa. This response is reduced by approximately 50% in pre-cancerous mucosa or by greater than 75% in cancerous mucosa. In addition, the loss in sodium conductance results in an increase of impedance of the surface epithelium. This ion transport alteration may be measured by determining the change in TEP as well as the basal impedance. In abnormal pre-cancerous or cancerous tissue, the TEP is lower, the response of the TEP to amiloride is less, and the increase in impedance (observed in normal colon in response to amiloride) is less in abnormal pre-cancerous or cancerous tissue. Similar pharmacological agents may be introduced that alter the effect of chloride or potassium ion transport, which affect abnormal pre-cancerous or cancerous tissue in a different manner than in normal colon tissue.

[3] = tested on: human breast epithelial cells; assay: Cell membrane potential (ψ) in human breast epithelial cells, potentiometric fluorescent probe; assay type: cell-based
Description: Measurements were made using a potentiometric fluorescent probe, and ratiometric measurements, which are calibrated using valinomycin and K^+-gradients. ψs were measured in the presence (closed circles) and absence (open circles) of estradiol (the active metabolite of estrogen). Each symbol is the mean measurement. The upper error bar is the standard error of the mean, and the lower error bar is the 95% confidence level for the observations. The addition of estrogen to cultured breast epithelial cells results in an instantaneous increase in ψ (data not shown) as well as transepithelial potential see FIG. 10. Transepithelial potential (VT) of an epithelium is the sum of the apical (luminal) cell membrane potential (VA) and the basolateral (abluminal) cell membrane potential (VBL). Therefore VT=VA+VBL(changes in VA and VBL will therefore alter VT or transepithelial potential). […] Malignant and transformed cells have a ψ of between −31 and −35 mV in the absence of estradiol and approximately […] when estradiol is present in the culture medium.

[4] = tested on: benign and malignant human breast epithelial cells; assay: Transepithelial potential (TEP) of breast epithelial monolayers in modified Ussing chambers, voltage clamp; assay type: cell-based
Description: It should be noted that the instantaneous response, illustrated in FIG. 10, is greater in malignant epithelia, whereas the chronic or sustained exposure to estradiol results in a lower increase in TEP (transepithelial electropotential) in malignant cells. Concurrent measurement of surface electropotential and impedance allow the more accurate diagnosis of cancer. […] The cells were grown as monolayers on Millipore filters and grew to confluence in 7 to 10 days. The epithelia were then mounted in modified Ussing chambers and the TEP was measured using a voltage clamp. Increasing doses of estradiol between 0 and 0.8 μM were added (x-axis). The transepithelial potential was measured after each addition and the TEP was measured (y-axis). The different dose response is apparent for benign and malignant epithelia. Malignant epithelia have a lower TEP but undergo an instantaneous increase in TEP of approximately 9 mV (becomes more electronegative and reaches a level of <6 mV) after exposure to only 0.1 μM estradiol and then depolarize to approximately −2 mV with increasing doses of estradiol up to about 0.5 μM.

breast tissue = assay: Electrophysiological (TEP) response of breast tissue to estradiol given into the duct or sublingually; assay type: in vivo; conditions: into the duct or sublingual 17-β-estradiol (4 mg)
Description: In one method of present invention, estradiol is introduced directly into the duct or systematically following sublingual administration of 17-β-estradiol (4 mg). This agent produces a rapid response, which peaks at approximately 20 minutes. The electrophysiological response depends, in part, on the stage of the patient's menstrual cycle, as well as the condition of the breast tissue. Specifically, in normal breast tissue, a rise in TEP will occur during the follicular (or early) phase. In pre-cancerous or cancerous tissue, this response is abrogated.

[5] = malignant epithelia, after exposure to 0.1 μM estradiol

In the case of `C[C@]12CCC(=O)C[C@@H]1CC[C@@H]1[C@@H]2CC[C@]2(C)[C@@H](O)CC[C@@H]12` [DHT, dihydroxytestosterone], the “effect on cell membrane potential ψ” value ([1]; exponential growth) is reported as “slightly hyperpolarized” and the “effect on cell membrane potential ψ” value ([1]; on reaching confluence) is reported as “depolarize”.
In the case of `CC[N+](CC)(CC)CC` [TEA, tetraethyl ammonium], the “effect on Isc” value [2] is reported as “abrupt increase in Isc”.
`N=C(N)NC(=O)c1nc(Cl)c(N)nc1N` [amiloride] was tested, and the “reduction of the TEP response to amiloride” value (colonic mucosa; cancerous mucosa versus normal) was “greater than 75%”, the “effect on measured TEP” value (colonic mucosa; normal colonic mucosa, topically applied) was “decreases” and the “reduction of the TEP response to amiloride” value (colonic mucosa; pre-cancerous mucosa versus normal) was “approximately 50%”.
In the case of `C[C@]12CC[C@@H]3c4ccc(O)cc4CC[C@H]3[C@@H]1CC[C@@H]2O` [estradiol, 17-β-estradiol], the “cell membrane potential ψ” value ([3]; benign breast epithelial cells, estradiol added to the culture media (about −50 mV without)) is reported as ~−70 mV, the “cell membrane potential ψ” value ([3]; malignant and transformed cells, estradiol present in culture medium (−31 to −35 mV without)) is reported as “approximately 50 mV” and the “estradiol dose at which TEP response peaks” value ([4]; benign epithelia, then remains persistently elevated) is reported as ~0.3 µM. For the same molecule, the TEP level reached [4, 5] was < 6 mV, the “instantaneous increase in TEP” value [4, 5] was “approximately 9 mV” and the TEP after depolarization ([4]; malignant epithelia, increasing doses of estradiol up to about 0.5 μM) was “approximately −2 mV”. The “time of peak electrophysiological response” value (breast tissue) was “approximately 20 minutes”.
